Columns and labels:
CnpB = CnpB (Mycobacterium tuberculosis, UniProt P71615); assay: DRaCALA, serial dilutions of protein; format: binding
RECON (mRECON) = target: T1, RECON (mRECON) (Mus musculus, UniProt Q8VC28); assay: DRaCALA; format: binding
T1 sequence (Q8VC28 1-323): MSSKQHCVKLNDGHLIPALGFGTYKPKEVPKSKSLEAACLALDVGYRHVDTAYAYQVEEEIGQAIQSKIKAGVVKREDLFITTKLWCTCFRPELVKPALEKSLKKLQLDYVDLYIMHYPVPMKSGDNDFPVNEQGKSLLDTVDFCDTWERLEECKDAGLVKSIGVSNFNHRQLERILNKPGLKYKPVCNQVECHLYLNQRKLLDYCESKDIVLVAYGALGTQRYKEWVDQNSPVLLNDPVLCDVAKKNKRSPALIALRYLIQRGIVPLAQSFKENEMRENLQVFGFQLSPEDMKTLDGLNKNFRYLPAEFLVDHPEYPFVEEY

Sequence of CnpB (P71615 whole entry): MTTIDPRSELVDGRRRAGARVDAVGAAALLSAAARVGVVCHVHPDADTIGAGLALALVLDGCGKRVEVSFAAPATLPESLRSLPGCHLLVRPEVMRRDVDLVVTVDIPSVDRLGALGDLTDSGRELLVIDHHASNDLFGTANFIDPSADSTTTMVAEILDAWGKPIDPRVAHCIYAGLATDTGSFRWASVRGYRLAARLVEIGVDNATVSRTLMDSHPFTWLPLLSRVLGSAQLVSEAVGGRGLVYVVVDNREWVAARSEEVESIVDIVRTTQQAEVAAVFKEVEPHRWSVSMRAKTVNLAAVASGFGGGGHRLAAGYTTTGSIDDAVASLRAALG

Structure (SMILES): Nc1ncnc2c1ncn2[C@@H]1O[C@@H]2COP(=O)(O)O[C@H]3[C@@H](O)[C@H](n4cnc5c(N)ncnc54)O[C@@H]3COP(=O)(O)O[C@H]2[C@H]1O [3’3’-c-di-AMP]
- Kd (CnpB): ~3000 nM
- Kd (RECON (mRECON)): 68 nM

Source: article PMC8715907 (Chembiochem : a European journal of chemical biology, 2020)
